Data reported in patent US7074789B2, “Kinase inhibitors” (Amgen Inc., priority 1999, dated 2006).

Columns and labels:
Type in all cases: biochemical
Lyn = target: T1, Lyn (Homo sapiens, UniProt P07948); experiment: Kinase inhibition assay (33P transfer), Lyn; conditions: Table 6, Lyn-1 kinase inhibition class
T1 construct: Kinases are expressed as either kinase domains or full length constructs; made in house
Summary of the method: (§1)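 Each enzyme, purified to near homogeneity by affinity chromatography, was incubated with ATP carrying 33P and a substrate polymer fixed to the plate. Unbound label was removed with dilute phosphoric acid (0.5%) before adding scintillant and counting. Potency is given as the compound level cutting label uptake by 50%.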

Kdr = target: T2, Kdr (Homo sapiens, UniProt P35968); experiment: Kinase inhibition assay (33P transfer), Kdr; conditions: read-out: KDR-1
T2 construct: Kinases are expressed as either kinase domains or full length constructs; made in house
Summary of the method: (§2)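 Activity was read as 33P incorporation, counted by liquid scintillation after a 0.5% phosphoric acid wash, into poly(Glu,Tyr) 4:1 or poly(Arg,Ser) 3:1 substrates coated on plates. Enzymes were tagged (GST or polyHis) kinase domains or full-length proteins from bacterial or insect-cell expression, sometimes with regulatory polypeptides.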

Src = target: T3, Src (Homo sapiens, UniProt P12931); experiment: Kinase inhibition assay (33P transfer), Src; conditions: Table 6, Src-1 kinase inhibition class
T3 construct: Kinases are expressed as either kinase domains or full length constructs; made in house
T3 sequence (P12931 whole entry, species assumed, the tested form may be a part): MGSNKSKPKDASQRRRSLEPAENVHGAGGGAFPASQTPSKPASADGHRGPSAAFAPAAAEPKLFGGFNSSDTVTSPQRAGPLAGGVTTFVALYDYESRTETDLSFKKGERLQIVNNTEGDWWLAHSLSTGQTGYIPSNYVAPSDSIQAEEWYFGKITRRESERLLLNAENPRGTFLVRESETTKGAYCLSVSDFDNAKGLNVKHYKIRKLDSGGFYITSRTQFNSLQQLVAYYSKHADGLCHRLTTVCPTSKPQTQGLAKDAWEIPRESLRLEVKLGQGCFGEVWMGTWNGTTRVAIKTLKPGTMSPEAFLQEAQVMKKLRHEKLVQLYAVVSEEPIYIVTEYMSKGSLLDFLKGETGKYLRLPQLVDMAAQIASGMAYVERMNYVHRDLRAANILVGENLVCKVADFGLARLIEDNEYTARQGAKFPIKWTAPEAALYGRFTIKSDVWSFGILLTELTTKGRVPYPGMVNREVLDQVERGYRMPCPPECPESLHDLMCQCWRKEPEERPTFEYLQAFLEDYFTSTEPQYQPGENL
Summary of the method: as §1

PDGFRB = target: T4, PDGFRB (Homo sapiens, UniProt P09619); experiment: Kinase inhibition assay (33P transfer), PDGFRB; conditions: read-out: PDGFRB-1
T4 construct: Kinases are expressed as either kinase domains or full length constructs; made in house

Itk = target: T5, Itk (Homo sapiens, UniProt Q08881); experiment: Kinase inhibition assay (33P transfer), Itk; conditions: read-out: Itk-1
T5 construct: Kinases are expressed as either kinase domains or full length constructs; made in house
T5 sequence (Q08881 1-620): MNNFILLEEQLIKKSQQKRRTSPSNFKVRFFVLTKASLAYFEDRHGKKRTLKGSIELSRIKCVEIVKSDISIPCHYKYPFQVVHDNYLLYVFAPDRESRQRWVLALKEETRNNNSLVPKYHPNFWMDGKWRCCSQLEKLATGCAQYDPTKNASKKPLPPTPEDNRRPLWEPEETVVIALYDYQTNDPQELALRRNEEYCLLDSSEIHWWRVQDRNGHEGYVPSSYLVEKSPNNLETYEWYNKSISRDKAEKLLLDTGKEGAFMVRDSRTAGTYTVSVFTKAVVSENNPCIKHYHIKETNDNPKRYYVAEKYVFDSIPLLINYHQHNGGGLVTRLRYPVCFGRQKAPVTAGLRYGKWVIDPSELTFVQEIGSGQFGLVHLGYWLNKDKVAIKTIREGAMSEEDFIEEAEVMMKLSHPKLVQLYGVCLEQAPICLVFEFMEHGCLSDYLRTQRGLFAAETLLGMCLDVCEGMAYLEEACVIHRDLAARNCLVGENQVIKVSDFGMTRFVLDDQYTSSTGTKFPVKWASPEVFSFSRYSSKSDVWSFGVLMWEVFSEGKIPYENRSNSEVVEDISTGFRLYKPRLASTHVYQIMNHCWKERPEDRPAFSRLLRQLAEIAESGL
Summary of the method: as §1

FGFR1 = target: T6, FGFR1 (Homo sapiens, UniProt P11362); experiment: Kinase inhibition assay (33P transfer), FGFR1; conditions: read-out: FGFR1-1
T6 construct: Kinases are expressed as either kinase domains or full length constructs; made in house

Ret-1 = target: T7, Ret-1 (Homo sapiens, UniProt P07949); experiment: Kinase inhibition assay (33P transfer), Ret; conditions: Table 6, Ret-1 kinase inhibition class
T7 construct: Kinases are expressed as either kinase domains or full length constructs; made in house
T7 sequence (P07949 29-1114): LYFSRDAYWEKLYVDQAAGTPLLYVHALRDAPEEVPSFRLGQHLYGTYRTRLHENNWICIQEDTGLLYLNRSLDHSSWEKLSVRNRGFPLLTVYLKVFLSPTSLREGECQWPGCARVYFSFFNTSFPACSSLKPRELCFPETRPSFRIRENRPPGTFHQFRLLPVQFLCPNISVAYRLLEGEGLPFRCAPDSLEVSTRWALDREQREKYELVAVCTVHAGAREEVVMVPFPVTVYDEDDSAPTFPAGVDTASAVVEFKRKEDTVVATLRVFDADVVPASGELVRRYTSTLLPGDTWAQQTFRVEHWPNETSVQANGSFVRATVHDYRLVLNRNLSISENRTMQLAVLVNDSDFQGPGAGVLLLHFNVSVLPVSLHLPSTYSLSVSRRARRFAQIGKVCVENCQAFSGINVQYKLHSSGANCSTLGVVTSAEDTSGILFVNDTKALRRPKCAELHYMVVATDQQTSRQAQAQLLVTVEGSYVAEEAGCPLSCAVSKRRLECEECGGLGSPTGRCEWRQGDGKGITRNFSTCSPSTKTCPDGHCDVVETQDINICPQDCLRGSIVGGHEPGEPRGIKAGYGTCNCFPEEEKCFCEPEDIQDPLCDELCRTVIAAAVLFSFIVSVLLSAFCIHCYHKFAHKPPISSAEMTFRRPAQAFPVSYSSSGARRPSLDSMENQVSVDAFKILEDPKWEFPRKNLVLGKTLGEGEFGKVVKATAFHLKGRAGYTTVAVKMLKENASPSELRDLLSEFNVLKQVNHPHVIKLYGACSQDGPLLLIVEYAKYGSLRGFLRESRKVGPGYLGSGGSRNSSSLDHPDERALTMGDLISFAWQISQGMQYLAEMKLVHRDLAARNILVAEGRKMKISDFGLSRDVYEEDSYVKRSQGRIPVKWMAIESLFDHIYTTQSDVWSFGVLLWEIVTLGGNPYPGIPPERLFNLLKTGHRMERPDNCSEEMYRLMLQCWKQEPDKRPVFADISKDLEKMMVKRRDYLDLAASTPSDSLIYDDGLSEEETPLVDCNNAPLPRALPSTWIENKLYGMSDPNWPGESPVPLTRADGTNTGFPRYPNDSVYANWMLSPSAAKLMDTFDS

EGFR = target: T8, EGFR (Homo sapiens, UniProt P00533); experiment: Kinase inhibition assay (33P transfer), EGFR; conditions: Table 2, kinase inhibition class; read-out: EGFR-1
T8 construct: Kinases are expressed as either kinase domains or full length constructs; made in house
T8 sequence (P00533 25-1210, species assumed): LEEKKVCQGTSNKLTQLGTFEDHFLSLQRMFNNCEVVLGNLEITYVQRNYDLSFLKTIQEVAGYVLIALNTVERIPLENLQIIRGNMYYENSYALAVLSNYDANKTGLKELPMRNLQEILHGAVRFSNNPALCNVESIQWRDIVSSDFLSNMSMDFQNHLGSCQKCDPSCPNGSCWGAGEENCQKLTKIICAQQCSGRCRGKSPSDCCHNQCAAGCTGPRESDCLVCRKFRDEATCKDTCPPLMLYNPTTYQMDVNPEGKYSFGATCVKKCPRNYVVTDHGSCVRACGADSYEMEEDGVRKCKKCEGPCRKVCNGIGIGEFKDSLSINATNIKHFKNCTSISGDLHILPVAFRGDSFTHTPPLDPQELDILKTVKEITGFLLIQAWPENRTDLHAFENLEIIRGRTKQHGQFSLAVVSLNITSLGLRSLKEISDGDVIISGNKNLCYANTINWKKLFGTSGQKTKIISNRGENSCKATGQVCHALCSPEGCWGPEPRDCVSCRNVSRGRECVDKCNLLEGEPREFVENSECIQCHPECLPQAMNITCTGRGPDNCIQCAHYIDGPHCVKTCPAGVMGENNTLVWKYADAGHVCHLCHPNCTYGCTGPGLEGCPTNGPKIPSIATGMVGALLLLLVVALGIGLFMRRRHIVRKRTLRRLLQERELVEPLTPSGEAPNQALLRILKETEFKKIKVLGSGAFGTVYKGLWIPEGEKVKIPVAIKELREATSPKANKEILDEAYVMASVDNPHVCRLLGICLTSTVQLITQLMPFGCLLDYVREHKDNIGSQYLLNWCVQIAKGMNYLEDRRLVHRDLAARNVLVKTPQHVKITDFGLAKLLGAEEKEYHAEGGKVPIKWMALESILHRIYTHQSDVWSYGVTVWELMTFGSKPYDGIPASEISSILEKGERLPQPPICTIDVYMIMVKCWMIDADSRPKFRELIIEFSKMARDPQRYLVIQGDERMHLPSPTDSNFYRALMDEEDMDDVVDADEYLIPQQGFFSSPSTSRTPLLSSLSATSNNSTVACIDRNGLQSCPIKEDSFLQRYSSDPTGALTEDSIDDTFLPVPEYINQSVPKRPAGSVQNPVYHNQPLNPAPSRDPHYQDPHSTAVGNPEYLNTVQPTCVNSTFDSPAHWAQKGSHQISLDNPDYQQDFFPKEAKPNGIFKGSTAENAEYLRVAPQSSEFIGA
Summary of the method: as §1

ErbB4 = target: T9, ErbB4 (Homo sapiens, UniProt Q15303); experiment: Kinase inhibition assay (33P transfer), ErbB4; conditions: read-out: ErbB4-1
T9 construct: Kinases are expressed as either kinase domains or full length constructs; made in house

Hck-1 = target: T10, Hck-1 (Homo sapiens, UniProt P08631); experiment: Kinase inhibition assay (33P transfer), Hck; conditions: Table 6, Hck-1 kinase inhibition class
T10 construct: Kinases are expressed as either kinase domains or full length constructs; made in house
T10 sequence (P08631 whole entry, the tested form may be a part): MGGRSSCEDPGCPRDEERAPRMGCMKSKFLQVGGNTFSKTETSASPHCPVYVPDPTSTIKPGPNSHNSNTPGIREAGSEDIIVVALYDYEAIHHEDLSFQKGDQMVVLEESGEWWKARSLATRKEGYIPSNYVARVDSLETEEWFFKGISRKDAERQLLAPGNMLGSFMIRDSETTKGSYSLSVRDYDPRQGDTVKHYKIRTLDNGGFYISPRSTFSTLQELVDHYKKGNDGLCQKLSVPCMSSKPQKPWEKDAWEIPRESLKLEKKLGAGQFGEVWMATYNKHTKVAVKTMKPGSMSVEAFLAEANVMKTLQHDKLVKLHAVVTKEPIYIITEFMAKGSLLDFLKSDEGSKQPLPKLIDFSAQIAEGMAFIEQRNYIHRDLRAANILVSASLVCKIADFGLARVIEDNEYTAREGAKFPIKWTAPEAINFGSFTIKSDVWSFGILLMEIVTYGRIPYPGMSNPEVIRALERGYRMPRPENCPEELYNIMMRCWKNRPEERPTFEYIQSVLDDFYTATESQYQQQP

c-Met = target: T11, c-Met (Homo sapiens, UniProt P08581); experiment: Kinase inhibition assay (33P transfer), c-Met; conditions: Table 2, kinase inhibition class; read-out: Met-1
T11 construct: Kinases are expressed as either kinase domains or full length constructs; made in house
Summary of the method: as §1

Zap-70 = target: T12, Zap-70 (Homo sapiens, UniProt P43403); experiment: Kinase inhibition assay (33P transfer), Zap-70; conditions: read-out: Zap-1
T12 construct: Kinases are expressed as either kinase domains or full length constructs; made in house
T12 sequence (P43403 1-619): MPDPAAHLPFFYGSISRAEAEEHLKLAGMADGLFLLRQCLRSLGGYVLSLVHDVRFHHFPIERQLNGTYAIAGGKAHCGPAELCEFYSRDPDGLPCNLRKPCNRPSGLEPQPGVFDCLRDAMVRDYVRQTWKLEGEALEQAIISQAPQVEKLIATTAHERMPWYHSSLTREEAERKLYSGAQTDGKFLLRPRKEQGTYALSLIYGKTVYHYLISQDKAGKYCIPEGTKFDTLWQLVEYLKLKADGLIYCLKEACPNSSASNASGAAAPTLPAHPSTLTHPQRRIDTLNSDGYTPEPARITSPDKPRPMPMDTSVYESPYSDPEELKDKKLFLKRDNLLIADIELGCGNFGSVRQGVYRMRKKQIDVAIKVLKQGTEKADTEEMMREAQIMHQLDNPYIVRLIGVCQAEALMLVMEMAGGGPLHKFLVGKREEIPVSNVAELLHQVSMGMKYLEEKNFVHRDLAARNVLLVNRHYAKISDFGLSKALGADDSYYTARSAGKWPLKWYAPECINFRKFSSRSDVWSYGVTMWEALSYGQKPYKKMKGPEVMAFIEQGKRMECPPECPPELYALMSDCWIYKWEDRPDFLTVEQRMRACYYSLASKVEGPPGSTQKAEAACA
Summary of the method: as §2

AKT = target: T13, AKT (Homo sapiens, UniProt Q9Y243); experiment: Kinase inhibition assay (33P transfer), AKT; conditions: Table 2, kinase inhibition class; read-out: AKT3-1
T13 construct: Kinases are expressed as either kinase domains or full length constructs; made in house
Summary of the method: as §2

IGFR-1 = target: T14, IGFR-1 (Homo sapiens, UniProt P08069); experiment: Kinase inhibition assay, IGFR-1 (Table 2); conditions: Table 2, kinase inhibition class
T14 construct: Kinases are expressed as either kinase domains or full length constructs; made in house

Flt-1 = target: T15, Flt-1 (Homo sapiens, UniProt P17948); experiment: Kinase inhibition assay (33P transfer), Flt-1
T15 construct: Kinases are expressed as either kinase domains or full length constructs; made in house
Summary of the method: as §1

Lck = target: T16, Lck (Homo sapiens, UniProt P06239); experiment: Kinase inhibition assay (33P transfer), Lck; conditions: read-out: Lck-1
T16 construct: Kinases are expressed as either kinase domains or full length constructs; made in house
Summary of the method: as §2

Fyn = target: T17, Fyn (Homo sapiens, UniProt P06241); experiment: Kinase inhibition assay (33P transfer), Fyn; conditions: read-out: Fyn-1
T17 construct: Kinases are expressed as either kinase domains or full length constructs; made in house
T17 sequence (P06241 whole entry, species assumed, the tested form may be a part): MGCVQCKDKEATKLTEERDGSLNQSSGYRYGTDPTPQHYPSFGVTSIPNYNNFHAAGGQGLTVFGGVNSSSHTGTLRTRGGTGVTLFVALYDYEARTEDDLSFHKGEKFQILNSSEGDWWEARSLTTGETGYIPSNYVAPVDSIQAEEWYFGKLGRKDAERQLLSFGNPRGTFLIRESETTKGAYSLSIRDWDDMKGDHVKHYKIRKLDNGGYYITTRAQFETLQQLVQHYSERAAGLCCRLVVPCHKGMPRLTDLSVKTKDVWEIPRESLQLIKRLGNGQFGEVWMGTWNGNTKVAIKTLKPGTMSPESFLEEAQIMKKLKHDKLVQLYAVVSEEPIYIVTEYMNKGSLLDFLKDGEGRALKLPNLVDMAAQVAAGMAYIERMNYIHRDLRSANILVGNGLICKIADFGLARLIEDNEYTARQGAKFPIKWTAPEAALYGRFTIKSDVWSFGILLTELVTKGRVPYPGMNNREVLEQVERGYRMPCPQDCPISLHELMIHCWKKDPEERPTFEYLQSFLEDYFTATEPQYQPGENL
Summary of the method: as §1

ErbB2 = target: T18, ErbB2 (Homo sapiens, UniProt P04626); experiment: Kinase inhibition assay (33P transfer), ErbB2; conditions: read-out: ErbB2-2
T18 construct: Kinases are expressed as either kinase domains or full length constructs; made in house
T18 sequence (P04626 23-1255, species assumed): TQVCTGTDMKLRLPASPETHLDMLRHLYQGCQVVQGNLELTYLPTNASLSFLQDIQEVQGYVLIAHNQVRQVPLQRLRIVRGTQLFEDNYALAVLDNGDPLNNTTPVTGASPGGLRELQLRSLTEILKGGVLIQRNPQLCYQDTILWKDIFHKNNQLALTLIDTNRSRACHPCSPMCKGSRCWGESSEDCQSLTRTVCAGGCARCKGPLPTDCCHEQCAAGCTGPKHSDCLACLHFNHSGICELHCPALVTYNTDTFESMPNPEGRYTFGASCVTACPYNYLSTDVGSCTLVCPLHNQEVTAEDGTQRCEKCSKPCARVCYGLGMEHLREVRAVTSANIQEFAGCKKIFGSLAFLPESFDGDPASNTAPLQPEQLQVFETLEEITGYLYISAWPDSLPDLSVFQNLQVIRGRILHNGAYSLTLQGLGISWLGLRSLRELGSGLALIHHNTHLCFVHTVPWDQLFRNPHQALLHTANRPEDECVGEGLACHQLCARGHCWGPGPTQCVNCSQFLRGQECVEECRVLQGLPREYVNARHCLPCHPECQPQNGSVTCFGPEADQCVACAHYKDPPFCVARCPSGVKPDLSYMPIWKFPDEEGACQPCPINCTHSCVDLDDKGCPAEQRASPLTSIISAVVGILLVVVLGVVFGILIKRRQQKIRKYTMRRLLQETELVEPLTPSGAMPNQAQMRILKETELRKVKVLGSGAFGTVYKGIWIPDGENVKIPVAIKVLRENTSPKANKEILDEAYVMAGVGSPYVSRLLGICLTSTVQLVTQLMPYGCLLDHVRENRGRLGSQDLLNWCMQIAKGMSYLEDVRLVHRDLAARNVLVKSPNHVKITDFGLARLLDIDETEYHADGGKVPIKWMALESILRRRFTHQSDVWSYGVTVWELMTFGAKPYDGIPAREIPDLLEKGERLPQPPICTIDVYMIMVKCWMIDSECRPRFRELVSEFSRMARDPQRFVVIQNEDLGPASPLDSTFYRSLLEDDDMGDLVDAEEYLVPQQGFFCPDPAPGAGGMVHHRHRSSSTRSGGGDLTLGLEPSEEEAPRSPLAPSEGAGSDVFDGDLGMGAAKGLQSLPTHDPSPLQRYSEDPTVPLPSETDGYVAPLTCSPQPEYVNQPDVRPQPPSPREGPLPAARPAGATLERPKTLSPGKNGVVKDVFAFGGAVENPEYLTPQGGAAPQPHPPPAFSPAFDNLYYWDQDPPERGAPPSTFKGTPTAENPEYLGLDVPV
Summary of the method: as §1

SMILES | IC50 (Lyn) [nM] | IC50 (Kdr) [nM] | IC50 (Src) [µM] | IC50 (PDGFRB) [nM] | IC50 (Itk) [µM] | IC50 (FGFR1) [µM] | IC50 (Ret-1) [nM] | IC50 (EGFR) [nM] | IC50 (ErbB4) [µM] | IC50 (Hck-1) [µM] | IC50 (c-Met) [µM] | IC50 (Zap-70) [µM] | IC50 (AKT) [µM] | IC50 (IGFR-1) [µM] | IC50 (Flt-1) [µM] | IC50 (Lck) [nM] | IC50 (Fyn) [µM] | IC50 (ErbB2) [µM]
COc1cc(Nc2ncnc(N(C)c3cccc(Cl)c3)n2)cc(OC)c1OC [Compound 603] | 995 to 5970 | < 995 | 0.995 to 5.97 | 995 to 5970 | > 11.2 | 0.995 to 5.97 | < 995 | < 995 | 8.71 to 11.2 | 8.71 to 11.2 | 0.995 to 5.97 | > 11.2 | > 11.2 | 0.995 to 5.97 | 0.995 to 5.97 | < 995 | 0.995 to 5.97 | < 0.995
COc1cc(Nc2ncnc(-n3c(NCc4ccc(Cl)cc4F)nc4ccccc43)n2)cc(OC)c1OC [Compound 606] | 4480 to 6530 | < 746 | > 8.4 | 746 to 4480 | > 8.4 | 0.746 to 4.48 | 746 to 4480 | > 8400 | > 8.4 | > 8.4 | > 8.4 | > 8.4 | > 8.4 | 6.53 to 8.4 | 4.48 to 6.53 | 4480 to 6530 | > 8.4 | 6.53 to 8.4
CCN(CC)CCOc1ccc(Nc2ncnc(Nc3cc(OC)c(OC)c(OC)c3)n2)cc1OC [Compound 602] | 802 to 4810 | 7020 to 9030 | 0.802 to 4.81 | 802 to 4810 | > 9.03 | > 9.03 | > 9030 | 802 to 4810 | 0.802 to 4.81 | > 9.03 | > 9.03 | > 9.03 | > 9.03 | > 9.03 | > 9.03 | 802 to 4810 | 0.802 to 4.81 | 0.802 to 4.81
COc1cc(Nc2ncnc(N(C)c3cccc4ccccc34)n2)cc(OC)c1OC [Compound 607] | < 958 | < 958 | 0.958 to 5.75 | 958 to 5750 | > 10.8 | 0.958 to 5.75 | < 958 | < 958 | 0.958 to 5.75 | 0.958 to 5.75 | > 10.8 | > 10.8 | > 10.8 | > 10.8 | 8.38 to 10.8 | < 958 | 0.958 to 5.75 | 0.958 to 5.75
CCN(CC)CCOc1cc(Nc2ncnc(Nc3cc(OC)c(OC)c(OC)c3)n2)ccc1OC [Compound 600] | < 802 | 802 to 4810 | 0.802 to 4.81 | 802 to 4810 | > 9.03 | > 9.03 | 802 to 4810 | > 9030 | 0.802 to 4.81 | > 9.03 | > 9.03 | > 9.03 | > 9.03 | > 9.03 | > 9.03 | < 802 | 0.802 to 4.81 | 4.81 to 7.02
